In the assay the target is polyclonal human IgG. The experiment in a line: Adsorption isotherm of peptoid affinity resins against polyclonal human IgG. In kind it is binding. The conditions noted are these: IgG in PBS, 30 minutes; for Kd: affinity constant from hyperbola fit of adsorption isotherm, peptoid conjugated to chromatographic resin, read-out: Kd × 10^−6. On the procedure: The affinity for the peptoid-resin combinations was determined by measuring the adsorption isotherm of each resin against polyclonal human IgG (Pakimna et al., J Applied Sci., 12(11): 1136-1141, 2012). Briefly, 0.050 mL of 50% resin slurry was pipetted into 6 individual wells of a 96-well filter plate (0.45 micron, PVDF, Harvard Apparatus). The resin was washed with 2×250 μL PBS using a vacuum manifold. To an individual well, 0.25 mL of a human polyclonal IgG solution at different concentrations (10, 5, 2.5, 1.25, 0.625, and 0.3125 mg/mL) was added. The resin/IgG suspension was agitated gently on a rocking table for 30 minutes. The fluid was then collected via vacuum, and the resin was washed with 0.25 mL of PBS. The filtrate and wash were then analyzed by the BCA assay to determine the residual IgG concentration relative to the starting concentration of the solution.
The equilibrium concentrations were then used to determine the capacity of the resin at each IgG concentration using the following formula: q=Volumesample×(Initial Concentration−Equilibrium Concentration)/Volumeresin
A plot of q versus equilibrium concentration was generated and the data fit with a hyperbola to determine the affinity constant (Kd) and the maximum capacity (qmax) according to the below formula, where C=the equilibrium concentration of antibody in solution: q=qmax×C/(kd+C) Typical adsorption isotherm is shown in FIG. 2. Tabulated Kd and qmax data is found in Table 2.

[1] abbreviates: maximum capacity (qmax) of resin from hyperbola fit of adsorption isotherm.

*1 amine or outer side, *2 acyl side, *3 side chain or, on linkers, in order; H or OH if unused. Where a SMILES comes first, the peptide text is derived from it. [ ]: non-standard residue; d: D form. ξ: configuration not given here. Gly(N(CH2)2(3-indolyl)) = O=C(O)CNCCc1c[nH]c2ccccc12; NGly(CH2(3-pyridyl)) = O=C(O)CNCc1cccnc1; ξW = NC(Cc1c[nH]c2ccccc12)C(=O)O; Gly(N(CH2)3NH2) = NCCCNCC(=O)O; Cit = NC(=O)NCCC[CH](N)C(=O)O; Cysteamide = C(CS[*:3])N[*:1]; ξCit = NC(=O)NCCCC(N)C(=O)O; ξH = NC(Cc1c[nH]cn1)C(=O)O; Nphe = O=C(O)CNCc1ccccc1; NPrGly = CCCNCC(=O)O; ξV = CC(C)C(N)C(=O)O

Consider `NC(=O)NCCCC(NC(=O)CN(Cc1ccccc1)C(=O)CNCc1cccnc1)C(=O)NC(CCCNC(N)=O)C(=O)NCCS` (stereo not shown) [Ligand 12-55-6] (H-[NGly(CH2(3-pyridyl))][Nphe][Cit][Cit]-Cysteamide; configuration not given here), for which the Kd (in general, the constant that tells how readily two partners part at equilibrium) was determined as 33 µM. Further, the “Qmax” value under setting [1] was found to be 97 mg/mL.
On the same counts, the results for `CCCN(CC(=O)NCCS)C(=O)CN(CCc1c[nH]c2ccccc12)C(=O)CNC(=O)C(CCCNC(N)=O)NC(=O)CN(CCc1c[nH]c2ccccc12)C(=O)CNCc1cccnc1` (stereo not shown) [Ligand 12-65-1] (H-[NGly(CH2(3-pyridyl))][Gly(N(CH2)2(3-indolyl))][ξCit]G[Gly(N(CH2)2(3-indolyl))][NPrGly]-Cysteamide) are 7.9 µM and 65 mg/mL.
For the compound `CCCN(CC(=O)NCCS)C(=O)CN(CCc1c[nH]c2ccccc12)C(=O)CNC(=O)C(CCCNC(N)=O)NC(=O)CN(CCc1c[nH]c2ccccc12)C(=O)[C@@H](N)Cc1c[nH]cn1` (stereo partly shown) [Ligand 12-65-2] (H-H[Gly(N(CH2)2(3-indolyl))][ξCit]G[Gly(N(CH2)2(3-indolyl))][NPrGly]-Cysteamide), the Kd amounted to 15 µM. Further, the “Qmax” value under setting [1] is listed as 53 mg/mL.
The like results for `NC(=O)NCCCC(N)C(=O)N(CC(=O)N(CCc1c[nH]c2ccccc12)CC(=O)NCC(=O)N(CCc1c[nH]c2ccccc12)CC(=O)NCCS)Cc1cccnc1` (stereo not shown) [Ligand 12-65-5] (H-[ξCit][NGly(CH2(3-pyridyl))][Gly(N(CH2)2(3-indolyl))]G[Gly(N(CH2)2(3-indolyl))]-Cysteamide) were, in that order, 3.6 µM and 64 mg/mL.
With `NC(=O)NCCCC(NC(=O)CN(Cc1ccccc1)C(=O)CNCc1cccnc1)C(=O)NC(CCCNC(N)=O)C(=O)N(CC(=O)NCCS)Cc1cccnc1` (stereo not shown) [Ligand 12-65-8] (H-[NGly(CH2(3-pyridyl))][Nphe][Cit][Cit][NGly(CH2(3-pyridyl))]-Cysteamide; configuration not given here), the Kd worked out at 3.6 µM. Moreover, the “Qmax (mg/mL)” value under setting [1] amounted to 57. mg/mL.
Regarding `NC(=O)NCCCC(NC(=O)CN(CCc1c[nH]c2ccccc12)C(=O)CNCc1cccnc1)C(=O)N(CCc1c[nH]c2ccccc12)CC(=O)NCCS` (stereo not shown) [Ligand 16-81-4] (H-[NGly(CH2(3-pyridyl))][Gly(N(CH2)2(3-indolyl))][ξCit][Gly(N(CH2)2(3-indolyl))]-Cysteamide), the Kd was 2.9 µM. Also, under setting [1], the “Qmax” value amounted to 64 mg/mL.
Regarding `CCCN(CC(=O)NCCS)C(=O)C(Cc1c[nH]c2ccccc12)NC(=O)CNC(=O)CN(CCCN)C(=O)CN(CCc1c[nH]c2ccccc12)C(=O)CNCc1cccnc1` (stereo not shown) [Ligand 16-83-2] (H-[NGly(CH2(3-pyridyl))][Gly(N(CH2)2(3-indolyl))][Gly(N(CH2)3NH2)]G[ξW][NPrGly]-Cysteamide), the Kd stood at 5.3 µM. For the same compound, the “Qmax” value under setting [1] was found to be 49 mg/mL.
The like results for `CCCN(CC(=O)NCCS)C(=O)CN(CCc1c[nH]c2ccccc12)C(=O)CNC(=O)CN(CCCN)C(=O)C(Cc1c[nH]c2ccccc12)NC(=O)CNCc1cccnc1` (stereo not shown) [Ligand 16-83-3] (H-[NGly(CH2(3-pyridyl))][ξW][Gly(N(CH2)3NH2)]G[Gly(N(CH2)2(3-indolyl))][NPrGly]-Cysteamide) were, in that order, 7.3 µM and 51 mg/mL.
The like results for `CCCN(CC(=O)NCCS)C(=O)CN(CCc1c[nH]c2ccccc12)C(=O)CNC(=O)CN(CCCN)C(=O)CN(CCc1c[nH]c2ccccc12)C(=O)C(N)Cc1c[nH]cn1` (stereo not shown) [Ligand 16-83-5] (H-[ξH][Gly(N(CH2)2(3-indolyl))][Gly(N(CH2)3NH2)]G[Gly(N(CH2)2(3-indolyl))][NPrGly]-Cysteamide) were, in that order, 6.5 µM and 62 mg/mL.
On the same counts, the results for `CC(C)C(NC(=O)CN(CCc1c[nH]c2ccccc12)C(=O)CNC(=O)CN(CCCN)C(=O)CN(CCc1c[nH]c2ccccc12)C(=O)CNCc1cccnc1)C(=O)NCCS` (stereo not shown) [Ligand 16-83-6] (H-[NGly(CH2(3-pyridyl))][Gly(N(CH2)2(3-indolyl))][Gly(N(CH2)3NH2)]G[Gly(N(CH2)2(3-indolyl))][ξV]-Cysteamide) are 4.6 µM and 56 mg/mL.
For `NC(=O)NCCCC(NC(=O)CNCCc1c[nH]c2ccccc12)C(=O)N(CCc1c[nH]c2ccccc12)CC(=O)N(CC(=O)NCCS)Cc1cccnc1` (stereo not shown) [Ligand 16-83-7] (H-[Gly(N(CH2)2(3-indolyl))][ξCit][Gly(N(CH2)2(3-indolyl))][NGly(CH2(3-pyridyl))]-Cysteamide), the Kd amounted to 7.7 µM. In addition, the “Qmax” value under setting [1] was 53 mg/mL.
For the compound `NC(=O)NCCCC(N)C(=O)N(CCc1c[nH]c2ccccc12)CC(=O)N(CC(=O)N(CCc1c[nH]c2ccccc12)CC(=O)NCCS)Cc1cccnc1` (stereo not shown) [Ligand 16-83-9] (H-[ξCit][Gly(N(CH2)2(3-indolyl))][NGly(CH2(3-pyridyl))][Gly(N(CH2)2(3-indolyl))]-Cysteamide), the Kd was 4.9 µM. For the same compound, the “Qmax” value under setting [1] came to 52 mg/mL.
The like results for `NC(=O)NCCCC(NC(=O)CN(CCc1c[nH]c2ccccc12)C(=O)CNCc1cccnc1)C(=O)NC(CCCNC(N)=O)C(=O)NCCS` (stereo not shown) [Ligand 16-84-2] were, in that order, 6.5 µM and 48 mg/mL.
On the same counts, the results for `NC(=O)NCCCC(N)C(=O)N(CC(=O)N(CCc1c[nH]c2ccccc12)CC(=O)N(CC(=O)NCCS)Cc1cccnc1)Cc1cccnc1` (stereo not shown) [Ligand 16-84-3] (H-[ξCit][NGly(CH2(3-pyridyl))][Gly(N(CH2)2(3-indolyl))][NGly(CH2(3-pyridyl))]-Cysteamide) are 4.9 µM and 56 mg/mL.

These data come from patent publication US11053282B2, “Peptoid affinity ligands” (MIKE-ANN, LLC, priority 2016, dated 2021).
